{"source": "patent US8048910B2", "about": "“Combination of R,R-glycopyrrolate, rolipram, and budesonide for the treatment of inflammatory diseases” (Meda Pharma GmbH & Co. KG, priority 2005, dated 2011)", "key": {"[1]": {"system": "M1-M3 receptors", "conditions": "cited from earlier work"}, "[2]": {"target": "M3 muscarinic receptors (Homo sapiens, UniProt P20309)", "sequence (P20309 whole entry)": "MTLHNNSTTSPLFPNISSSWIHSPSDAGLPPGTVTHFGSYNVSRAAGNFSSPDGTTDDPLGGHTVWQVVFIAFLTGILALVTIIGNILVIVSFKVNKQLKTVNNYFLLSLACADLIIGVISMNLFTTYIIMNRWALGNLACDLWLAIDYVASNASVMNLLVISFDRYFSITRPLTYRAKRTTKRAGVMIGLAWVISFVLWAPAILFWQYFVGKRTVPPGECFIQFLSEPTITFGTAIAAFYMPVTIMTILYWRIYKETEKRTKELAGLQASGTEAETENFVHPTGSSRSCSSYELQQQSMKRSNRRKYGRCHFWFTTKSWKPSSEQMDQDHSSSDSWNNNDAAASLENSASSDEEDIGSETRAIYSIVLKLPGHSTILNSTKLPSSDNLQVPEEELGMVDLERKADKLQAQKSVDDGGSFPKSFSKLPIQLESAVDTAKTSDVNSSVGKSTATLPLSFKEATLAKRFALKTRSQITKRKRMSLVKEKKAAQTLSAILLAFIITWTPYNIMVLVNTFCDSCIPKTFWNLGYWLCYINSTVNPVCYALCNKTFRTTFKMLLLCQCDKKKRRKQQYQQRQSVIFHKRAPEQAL", "conditions": "kinetics studies; cited from earlier work"}, "[3]": {"conditions": "dog, in vivo, 15 mg/kg; cited from earlier work"}, "[4]": {"system": "allergen-induced airway eosinophilia", "conditions": "Brown Norway rats; administered directly into the lungs; cited from earlier work"}, "[5]": {"conditions": "animal experiments; completely reversed by adding scopolamine; cited from earlier work"}, "[6]": {"conditions": "mice; cited from earlier work"}, "[7]": {"system": "LPS-induced TNFα release from human monocytes", "test": "LPS-stimulated TNFα release from human monocytes (ELISA)", "assay_type": "cell-based", "description": "The influence of monocompounds and their various combinations, also in three-in-one on TNF secretion was investigated by using human monocytes. The study was approved by our institutional Ethics Committee according to the International Declarations of Helsinki and Tokyo.\nPeripheral blood mononuclear cells (PBMCs) were isolated from heparinized blood samples of healthy donors by density gradient centrifugation. An equal volume of Hanks buffer (Invitrogen, Heidelberg, Germany) was added to heparinized whole blood samples. […] A visible band containing PBMCs was transferred to a fresh tube and washed twice with Hanks-buffer. […] 5% CO2 overnight. Monocytes were isolated from other cells by adherence method, non-adherent cells were removed by changing the medium.\nCells were re-suspended at 10^6 cells/ml and incubated in 500 μl volumes in 24-well tissue culture plates (Falcon Becton Dickinson Labware, Heidelberg, Germany) at 37° C., 5% CO2. After pre-incubation with test substances (0.5 μl/500 μl medium) for 30 min, cells were stimulated with lipopolysaccharide (LPS) (Sigma, Deisenhofen, Germany) (1 μg/ml). After 24 h of incubation, cells were sedimented by centrifugation. The supernatants were harvested and kept frozen at −80° C. until protein determination.\nCytokine measurements in culture supernatants were done by sandwich ELISA using matched antibody pairs (BD Pharmingen, Heidelberg, Germany). ELISA plates (Maxisorb, Nunc, Wiesbaden, Germany) were coated overnight with anti-cytokine monoclonal antibody (mAb) in 0.1M carbonate buffer, pH 9.5. After being washed, plates were blocked with Assay Diluent (BD Pharmingen, Heidelberg, Germany) for 1 h and washed again. Appropriately diluted supernatant samples and standards were distributed in duplicates and the plates were incubated for 2 h at room temperature. Plates were washed, incubated for 1 h with working detector (biotinylated anti-cytokine antibody and Avidin-horseradish peroxidase conjugate) (BD Pharmingen, Heidelberg, Germany). After washing, substrate (TMB and hydrogen peroxide) was added. The reaction was stopped by adding of 1M H3PO4. Plates were read at 450 nm (reference 570 nm) in a microplate reader (Dynatech, Alexandria, USA). The results were expressed as a percentage of the control level of cytokines production by cells stimulated in the absence of the compound."}, "[8]": {"system": "collagen-induced arthritis", "conditions": "rats; cited from earlier work"}, "[9]": {"system": "allergic conjunctivitis", "conditions": "rats, administered topically into the eyes; cited from earlier work"}}}
{"smiles": "C[N+]1(C)CCC(OC(=O)C(O)(c2ccccc2)C2CCCC2)C1", "note": "(racemic) [glycopyrrolate, racemic glycopyrrolate]", "values": [{"measurement": "selectivity in binding to the M1-M3 receptors", "setting": "[1]", "result": "no selectivity"}, {"measurement": "dissociation from M3 muscarinic receptors", "setting": "[2]", "result": "dissociates slowly"}]}
{"smiles": "O=C(Nc1c(Cl)cncc1Cl)C(=O)c1cn(Cc2ccc(F)cc2)c2ccc(O)cc12", "note": "[AWD 12-281]", "values": [{"measurement": "emesis", "setting": "[3]", "result": "no emesis could be induced"}, {"measurement": "ID50 for suppression of allergen-induced airway eosinophilia", "setting": "[4]", "result": 7, "unit": "µg/kg"}]}
{"smiles": "COc1ccc(C2CNC(=O)C2)cc1OC1CCCC1", "note": "(stereo not shown) [rolipram]", "values": [{"measurement": "sedative effects (hypoactivity, decreased locomotion)", "setting": "[5]", "result": "induces sedative effects"}, {"measurement": "physiological bone formation and bone mass", "setting": "[6]", "result": "enhance physiological bone formation and thereby increase bone mass"}, {"measurement": "IC35 for inhibition of TNFα release", "setting": "[7]; IC35 determined instead of IC50 because maximum inhibition was around 70%", "result": "68.9 ± 15.2", "unit": "nM"}, {"measurement": "maximum inhibition of TNFα release", "setting": "[7]; human monocytes, LPS 1 μg/ml, 24 h", "result": "around 70%"}, {"measurement": "clinical and histological severity of collagen-induced arthritis", "setting": "[8]", "result": "reduced the clinical and histological severity"}]}
{"smiles": "CCCC1O[C@@H]2C[C@H]3[C@@H]4CCC5=CC(=O)C=C[C@]5(C)[C@H]4[C@@H](O)C[C@]3(C)[C@]2(C(=O)CO)O1", "note": "(stereo partly shown) [budesonide]", "values": [{"measurement": "IC50", "setting": "[7]; Monocyte, human monocytes, LPS 1 μg/ml, 24 h, read-out: IC50 for inhibition of TNFα release", "result": "0.55 ± 0.13", "unit": "nM"}]}
{"smiles": "C[C@H]1C[C@H]2[C@@H]3CCC4=CC(=O)C=C[C@]4(C)[C@@]3(Cl)[C@@H](O)C[C@]2(C)[C@@]1(O)C(=O)CO", "note": "[beclomethasone]", "values": [{"measurement": "ID50 for suppression of allergen-induced airway eosinophilia", "setting": "[4]", "result": 0.1, "unit": "µg/kg"}]}
{"smiles": "COc1cc(C(=O)NS(=O)(=O)c2ccccc2C)ccc1Cc1cn(C)c2ccc(NC(=O)OC3CCCC3)cc12", "note": "[Zafirlukast, zafirlukast]", "values": [{"measurement": "development of symptoms and mediator release", "setting": "[9]", "result": "effectively inhibit"}]}
{"smiles": "C[N+]1(C)CC[C@@H](OC(=O)[C@](O)(c2ccccc2)C2CCCC2)C1.[Br-]", "note": "[R,R-glycopyrrolate]", "values": [{"measurement": "influence of the single substance on LPS-induced TNFα release", "setting": "[7]; human monocytes, LPS 1 μg/ml, 24 h, concentrations up to 10 μM", "result": "did not influence"}]}
